Laboratory results from US20240226115A1, “AXL INHIBITOR COMPOUNDS” (ARCUS BIOSCIENCES, INC., priority 2021, published 2024).
pIC50: −log10 of the molar value.

Legend:
Axl = target: T1, Axl (Homo sapiens, UniProt P30530); experiment: HTRF KinEASE-TK biochemical potency, AXL; set-up: purchased Invitrogen; conditions: 5 nM AXL, 700 μM ATP
T1 sequence (P30530 26-894): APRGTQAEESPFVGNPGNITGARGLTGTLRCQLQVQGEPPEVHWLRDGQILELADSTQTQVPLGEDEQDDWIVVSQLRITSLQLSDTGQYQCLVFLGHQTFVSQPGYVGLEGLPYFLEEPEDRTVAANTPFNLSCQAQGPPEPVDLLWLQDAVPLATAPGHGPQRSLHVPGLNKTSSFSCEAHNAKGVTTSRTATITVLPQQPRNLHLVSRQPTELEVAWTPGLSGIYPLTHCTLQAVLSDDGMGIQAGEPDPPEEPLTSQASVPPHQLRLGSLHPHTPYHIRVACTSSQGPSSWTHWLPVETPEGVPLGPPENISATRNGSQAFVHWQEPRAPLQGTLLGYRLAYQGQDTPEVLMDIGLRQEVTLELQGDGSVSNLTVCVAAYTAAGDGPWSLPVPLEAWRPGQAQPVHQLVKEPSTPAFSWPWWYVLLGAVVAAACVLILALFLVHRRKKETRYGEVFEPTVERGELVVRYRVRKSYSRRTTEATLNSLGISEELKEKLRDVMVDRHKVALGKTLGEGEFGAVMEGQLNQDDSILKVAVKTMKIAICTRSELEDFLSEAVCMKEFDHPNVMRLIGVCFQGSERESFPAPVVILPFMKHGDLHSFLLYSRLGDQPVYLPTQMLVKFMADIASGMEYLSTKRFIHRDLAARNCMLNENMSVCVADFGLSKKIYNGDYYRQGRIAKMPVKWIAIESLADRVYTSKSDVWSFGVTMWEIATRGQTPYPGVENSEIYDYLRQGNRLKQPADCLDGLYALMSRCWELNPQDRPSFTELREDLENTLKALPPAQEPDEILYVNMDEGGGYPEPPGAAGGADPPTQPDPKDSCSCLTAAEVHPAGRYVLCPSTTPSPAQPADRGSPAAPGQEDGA
Method: (§1) Purified recombinant human AXL, TYRO3 and MER proteins were purchased from Invitrogen™. 10 nM AXL, 2 nM TYRO3 or MER were incubated with varying concentrations of compounds in 50 mM HEPES, pH 7.4, 10 mM MgCl2, 0.01% BSA, 1 mM DTT and 2% DMSO in a total volume of 20 μl in a 384-well microplate (Corning™ #3640) at RT for 1 h. The AXL, TYRO3 and MER enzymatic reaction was initiated by transferring 10 μl of enzyme and compound mixture into 10 μl of 1.6 μM TK Substrate-biotin (HTRF® KinEASE-TK kit, Cisbio) and 1400 μM ATP pre-incubated in 50 mM HEPES, pH 7.4, 10 mM MgCl2, 0.01% BSA, 1 mM DTT in a 384-well microplate (Corning™ #3640) at RT, giving the final reaction conditions: 5 nM AXL, 1 nM TYRO3 or MER, 800 nM TK Substrate-biotin and 700 μM ATP in 50 mM HEPES, pH 7.4, 10 mM MgCl2, 0.01% BSA, 1 mM DTT and 1% DMSO with varying concentrations of compounds. Following 2 h incubation at RT, the AXL, TYRO3 and MER enzymatic reaction was stopped by transfer of 10 μl of reaction into 10 μl of detection mix (400 nM Streptavidin-XL665, 200-fold dilution TK Antibody-Cryptate and detection buffer, HTRF® KinEASE-TK kit, Cisbio) in a white 384-well microplate (Perkin Elmer, OptiPlate 384). After 1 h incubation at RT, the plate was put into a plate reader (Evision) to read at 665/620 nm (acceptor/donor) for HTRF. The value of the DMSO blank (MIN inhibition=100% activity) was used as a negative control. The positive control was established by adding 5 μl of enzyme and DMSO mixture into 10 μl of detection mix followed by addition of 5 μl of TK Substrate-biotin and ATP mixture (MAX inhibition=0% activity). To calculate the percent activity, Equation 1 was used. Ratio665/620 is the value at a given compound concentration: […]

recombinant human MER = target: T2, recombinant human MER (Homo sapiens, UniProt Q12866); experiment: HTRF KinEASE-TK biochemical potency, MER; conditions: 1 nM MER, 700 μM ATP
T2 construct: purchased Invitrogen
T2 sequence (Q12866 21-999): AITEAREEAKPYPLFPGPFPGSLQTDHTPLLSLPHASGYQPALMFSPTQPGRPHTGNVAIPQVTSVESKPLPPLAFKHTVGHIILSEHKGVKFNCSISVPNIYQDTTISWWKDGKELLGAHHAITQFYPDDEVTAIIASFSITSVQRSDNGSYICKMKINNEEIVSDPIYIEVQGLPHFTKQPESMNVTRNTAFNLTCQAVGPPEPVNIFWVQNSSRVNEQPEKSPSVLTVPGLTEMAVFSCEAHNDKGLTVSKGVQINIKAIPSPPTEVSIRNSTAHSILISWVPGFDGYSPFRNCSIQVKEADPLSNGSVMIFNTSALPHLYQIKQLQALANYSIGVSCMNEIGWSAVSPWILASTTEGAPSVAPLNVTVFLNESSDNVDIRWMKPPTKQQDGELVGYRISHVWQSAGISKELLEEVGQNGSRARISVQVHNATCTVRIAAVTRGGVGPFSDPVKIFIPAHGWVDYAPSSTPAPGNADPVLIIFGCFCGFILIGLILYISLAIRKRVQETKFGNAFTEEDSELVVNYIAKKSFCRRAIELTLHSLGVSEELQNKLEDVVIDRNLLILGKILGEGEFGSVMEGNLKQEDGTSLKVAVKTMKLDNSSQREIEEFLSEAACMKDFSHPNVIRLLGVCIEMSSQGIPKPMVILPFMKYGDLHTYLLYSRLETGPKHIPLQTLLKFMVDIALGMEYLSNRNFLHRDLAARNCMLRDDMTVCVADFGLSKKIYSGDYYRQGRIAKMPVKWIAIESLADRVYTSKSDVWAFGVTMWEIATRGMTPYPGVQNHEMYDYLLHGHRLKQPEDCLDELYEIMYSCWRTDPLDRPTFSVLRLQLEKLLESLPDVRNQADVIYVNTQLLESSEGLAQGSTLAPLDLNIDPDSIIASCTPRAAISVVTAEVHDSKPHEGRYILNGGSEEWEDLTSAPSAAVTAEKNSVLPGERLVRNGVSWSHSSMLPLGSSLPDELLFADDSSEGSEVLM
Method: as §1

Row | pIC50 (Axl) | pIC50 (recombinant human MER) | Structure (SMILES)
1 | > 7.00 | 6.00 to 7.00 | O=C1NCCOc2cc(-c3n[nH]c4ncc(-c5ccc6c(n5)CCC(N5CCCC5)CC6)cc34)ccc21 (stereo not drawn) [Example 63, 8-{5-[7-(Pyrrolidin-1-yl)-5H,6H,7H,8H,9H-cyclohepta[b]pyridin-2-yl]-1H-pyrazolo[3,4-b]pyridin-3-yl}-2,3,4,5-tetrahydro-1,4-benzoxazepin-5-one]
2 | > 7.00 | 6.00 to 7.00 | C[C@@H]1CCCN1C1CCc2ccc(-c3cnc4[nH]nc(-c5ccc6c(c5)OCCNS6(=O)=O)c4c3)cc2CC1 (stereo partly drawn) [Example 66, 7-(5-{7-[(2R)-2-Methylpyrrolidin-1-yl]-6,7,8,9-tetrahydro-5H-benzo[7]annulen-2-yl}-1H-pyrazolo[3,4-b]pyridin-3-yl)-3,4-dihydro-2H-5,12,2-benzoxathiazepine-1,1-dione]
3 | > 7.00 | 6.00 to 7.00 | O=C1NCCOc2cc(-c3n[nH]c4ncc(-c5ccc6c(c5)CCNC6)cc34)ccc21 [Example 54, 8-(5-(1,2,3,4-Tetrahydroisoquinolin-6-yl)-1H-pyrazolo[3,4-b]pyridin-3-yl)-3,4-dihydrobenzo[f][1,4]oxazepin-5(2H)-one]
4 | > 7.00 | 6.00 to 7.00 | Cc1c(-c2n[nH]c3ncc(-c4ccc5c(c4)CCC(N4CCC[C@H]4C)CC5)cc23)ccc2c1OCCNC2=O (stereo partly drawn) [Example 41, 9-Methyl-8-(5-{7-[(2R)-2-methylpyrrolidin-1-yl]-6,7,8,9-tetrahydro-5H-benzo[7]annulen-2-yl}-1H-pyrazolo[3,4-b]pyridin-3-yl)-2,3,4,5-tetrahydro-1,4-benzoxazepin-5-one]
5 | > 7.00 | < 6.00 | CC1(O)CCCCc2cc(-c3n[nH]c4ncc(-c5ccc6c(c5)CCN(C5CCCC5)CC6)cc34)ccc21 (stereo not drawn) [Example 27, 2-[5-(3-Cyclopentyl-2,3,4,5-tetrahydro-1H-3-benzazepin-7-yl)-1H-pyrazolo[3,4-b]pyridin-3-yl]-5-methyl-6,7,8,9-tetrahydro-5H-benzo[7]annulen-5-ol]
6 | > 7.00 | > 7.00 | C[C@@H]1CCCN1C1CCc2ccc(-c3cnc4[nH]nc(-c5ccc6c(c5)OCCNC6=O)c4c3)cc2CC1 (stereo partly drawn) [Example 44, 8-(5-{7-[(2R)-2-Methylpyrrolidin-1-yl]-6,7,8,9-tetrahydro-5H-benzo[7]annulen-2-yl}-1H-pyrazolo[3,4-b]pyridin-3-yl)-2,3,4,5-tetrahydro-1,4-benzoxazepin-5-one]
7 | > 7.00 | > 7.00 | O=C1NCCOc2cc(-c3n[nH]c4ncc(-c5ccc6c(c5)CCC(N[C@H]5CCOC5)C6)cc34)ccc21 (stereo partly drawn) [Example 4, 8-[5-(6-{[(3S)—Oxolan-3-yl]amino}-5,6,7,8-tetrahydronaphthalen-2-yl)-1H-pyrazolo[3,4-b]pyridin-3-yl]-2,3,4,5-tetrahydro-1,4-benzoxazepin-5-one]
8 | > 7.00 | > 7.00 | COCCN1CCc2ccc(-c3cnc4[nH]nc(-c5ccc6c(c5)OCCNC6=O)c4c3)cc2CC1 [Example 15, 8-(5-(3-(2-Methoxyethyl)-2,3,4,5-tetrahydro-1H-benzo[d]azepin-7-yl)-1H-pyrazolo[3,4-b]pyridin-3-yl)-3,4-dihydrobenzo[f][1,4]oxazepin-5(2H)-one]
9 | > 7.00 | > 7.00 | C[C@@H]1CCCN1C1CCc2ccc(-c3cnc4[nH]nc(-c5ccc6c(c5)OCC5(CC5)NC6=O)c4c3)cc2CC1 (stereo partly drawn) [Example 36, 8-(5-{7-[(2R)-2-Methylpyrrolidin-1-yl]-6,7,8,9-tetrahydro-5H-benzo[7]annulen-2-yl}-1H-pyrazolo[3,4-b]pyridin-3-yl)-4,5-dihydro-2H-spiro[1,4-benzoxazepine-3,1′-cyclopropan]-5-one]
10 | > 7.00 | 6.00 to 7.00 | O=C1NCCOc2cc(-c3n[nH]c4ncc(-c5ccc6c(c5)CCN(C5CC5)C6)cc34)ccc21 [Example 21, 8-(5-(2-Cyclopropyl-1,2,3,4-tetrahydroisoquinolin-6-yl)-1H-pyrazolo[3,4-b]pyridin-3-yl)-3,4-dihydrobenzo[f][1,4]oxazepin-5(2H)-one]
11 | > 7.00 | > 7.00 | CC[C@@H]1CCCN1C1CCc2ccc(-c3cnc4[nH]nc(-c5ccc6c(c5)OCCNC6=O)c4c3)cc2CC1 (stereo partly drawn) [Example 25, 8-(5-{7-[(2R)-2-Ethylpyrrolidin-1-yl]-6,7,8,9-tetrahydro-5H-benzo[7]annulen-2-yl}-1H-pyrazolo[3,4-b]pyridin-3-yl)-2,3,4,5-tetrahydro-1,4-benzoxazepin-5-one]
12 | > 7.00 | > 7.00 | O=C1NCCOc2cc(-c3n[nH]c4ncc(-c5ccc6c(c5)CC[C@@H](N5CCCC5)CC6)cc34)ccc21 (single isomer, unassigned) [Example 57]
13 | > 7.00 | 6.00 to 7.00 | CC(C)(O)C(=O)N1CCc2ccc(-c3cnc4[nH]nc(-c5ccc6c(c5)OCCNC6=O)c4c3)cc2CC1 [Example 19, 8-(5-(3-(2-Hydroxy-2-methylpropanoyl)-2,3,4,5-tetrahydro-1H-benzo[d]azepin-7-yl)-1H-pyrazolo[3,4-b]pyridin-3-yl)-3,4-dihydrobenzo[f][1,4]oxazepin-5(2H)-one]
14 | > 7.00 | > 7.00 | O=C1NCCOc2cc(-c3n[nH]c4ncc(-c5ccc6c(c5)CCN(C5CCCC5)C6)cc34)ccc21 [Example 9, 8-(5-(2-Cyclopentyl-1,2,3,4-tetrahydroisoquinolin-6-yl)-1H-pyrazolo[3,4-b]pyridin-3-yl)-3,4-dihydrobenzo[f][1,4]oxazepin-5(2H)-one]
15 | > 7.00 | 6.00 to 7.00 | CC(C)C(=O)N1CCc2ccc(-c3cnc4[nH]nc(-c5ccc6c(c5)OCCNC6=O)c4c3)cc2CC1 [Example 16, 8-{5-[3-(2-Methylpropanoyl)-2,3,4,5-tetrahydro-1H-3-benzazepin-7-yl]-1H-pyrazolo[3,4-b]pyridin-3-yl}-2,3,4,5-tetrahydro-1,4-benzoxazepin-5-one]
